Calls of active or inactive are those of the source. The rule behind the calls is not given here.

In the series the test system is CCRIS mutagenicity, Ames/micronucleus/aberration tests. The series can be described thus: CCRIS mutagenicity studies.
The mark [1] stands for this setting: Test System: AMES SALMONELLA TYPHIMURIUM, Strain/Indicator: TA100, Metabolic Activation: NONE, Method: STANDARD PLATE.
[2] abbreviates: Test System: AMES SALMONELLA TYPHIMURIUM, Strain/Indicator: TA100, Metabolic Activation: RAT, LIVER, S-9, AROCLOR 1254, Method: STANDARD PLATE.
Where [3] appears, read: Test System: AMES SALMONELLA TYPHIMURIUM, Strain/Indicator: TA1535, Metabolic Activation: NONE, Method: STANDARD PLATE.
The mark [4] stands for this setting: Test System: MOUSE LYMPHOMA, Strain/Indicator: L5178Y (TK+/TK-), Metabolic Activation: NONE, Method: SUSPENSION/PLATE.

With `OCC1CO1` (configuration not stated), the mutagenic call (End Point: IN VITRO CHROMOSOMAL ABERRATIONS, Test System: CHL CELLS, Metabolic Activation: NONE) is “active; positive (structural changes)”; the mutagenic call (End Point: IN VITRO CHROMOSOMAL ABERRATIONS, Test System: CHL CELLS, Metabolic Activation: RAT, LIVER, S-9, SODIUM PHENOBARBITAL AND 5,6-BENZOFLAVONE) is “active; positive (structural changes)”; the mutagenic call (Test System: AMES SALMONELLA TYPHIMURIUM, Strain/Indicator: TA97, Metabolic Activation: HAMSTER, LIVER, S-9, AROCLOR 1254, Method: PREINCUBATION) was “active; positive”; the mutagenic call (Test System: AMES SALMONELLA TYPHIMURIUM, Strain/Indicator: TA97, Metabolic Activation: NONE, Method: PREINCUBATION) is “active; positive”; the mutagenic call (Test System: AMES SALMONELLA TYPHIMURIUM, Strain/Indicator: TA97, Metabolic Activation: RAT, LIVER, S-9, AROCLOR 1254, Method: PREINCUBATION) was “active; positive”; the mutagenic call (Test System: AMES SALMONELLA TYPHIMURIUM, Strain/Indicator: TA98, Metabolic Activation: HAMSTER, LIVER, S-9, AROCLOR 1254, Method: PREINCUBATION) is “active; positive”. Moreover, the mutagenic call (Test System: AMES SALMONELLA TYPHIMURIUM, Strain/Indicator: TA98, Metabolic Activation: NONE, Method: PREINCUBATION) is “active; positive”; the mutagenic call (Test System: AMES SALMONELLA TYPHIMURIUM, Strain/Indicator: TA98, Metabolic Activation: RAT, LIVER, S-9, AROCLOR 1254, Method: PREINCUBATION) is “active; positive”; the mutagenic call (Test System: AMES SALMONELLA TYPHIMURIUM, Strain/Indicator: TA100, Metabolic Activation: HAMSTER, LIVER, S-9, AROCLOR 1254, Method: PREINCUBATION) was “active; positive”; the mutagenic call (Test System: AMES SALMONELLA TYPHIMURIUM, Strain/Indicator: TA100, Metabolic Activation: NONE, Method: PREINCUBATION) is “active; positive”; the mutagenic call under setting [1] was “active; positive”; the mutagenic call (Test System: AMES SALMONELLA TYPHIMURIUM, Strain/Indicator: TA100, Metabolic Activation: RAT, LIVER, S-9, AROCLOR 1254, Method: PREINCUBATION) is “active; positive”. Further, the mutagenic call under setting [2] is “active; positive”; the mutagenic call (Test System: AMES SALMONELLA TYPHIMURIUM, Strain/Indicator: TA100, Metabolic Activation: RAT, LIVER, S-9, PCB, Method: PREINCUBATION) was “active; positive”; the mutagenic call (Test System: AMES SALMONELLA TYPHIMURIUM, Strain/Indicator: TA1535, Metabolic Activation: HAMSTER, LIVER, S-9, AROCLOR 1254, Method: PREINCUBATION) was “active; positive”; the mutagenic call (Test System: AMES SALMONELLA TYPHIMURIUM, Strain/Indicator: TA1535, Metabolic Activation: NONE, Method: PREINCUBATION) was “active; positive”; the mutagenic call under setting [3] is “active; positive”; the mutagenic call (Test System: AMES SALMONELLA TYPHIMURIUM, Strain/Indicator: TA1535, Metabolic Activation: RAT, LIVER, S-9, AROCLOR 1254, Method: PREINCUBATION) is “active; positive”. Besides, the mutagenic call reads like this: (Test System: AMES SALMONELLA TYPHIMURIUM, Strain/Indicator: TA1537, Metabolic Activation: HAMSTER, LIVER, S-9, AROCLOR 1254, Method: PREINCUBATION) “active; positive”; (Test System: AMES SALMONELLA TYPHIMURIUM, Strain/Indicator: TA1537, Metabolic Activation: NONE, Method: PREINCUBATION) “active; positive”; (Test System: AMES SALMONELLA TYPHIMURIUM, Strain/Indicator: TA1537, Metabolic Activation: RAT, LIVER, S-9, AROCLOR 1254, Method: PREINCUBATION) “active; positive”; (Test System: Ames Salmonella typhimurium, Strain/Indicator: TA98, Metabolic Activation: None, Method: Preincubation) “active; positive”; (Test System: Ames Salmonella typhimurium, Strain/Indicator: TA98, Metabolic Activation: Rat, Liver, S9, Sodium phenobarbital and 5,6-benzoflavone (10%), Method: Preincubation) “active; positive”; (Test System: Ames Salmonella typhimurium, Strain/Indicator: TA100, Metabolic Activation: None, Method: Preincubation) “active; positive”. Besides, the mutagenic call (Test System: Ames Salmonella typhimurium, Strain/Indicator: TA100, Metabolic Activation: Rat, Liver, S9, Sodium phenobarbital and 5,6-benzoflavone (10%), Method: Preincubation) is “active; positive”; the mutagenic call (Test System: Ames Salmonella typhimurium, Strain/Indicator: TA1535, Metabolic Activation: None, Method: Preincubation) is “active; positive”; the mutagenic call (Test System: Ames Salmonella typhimurium, Strain/Indicator: TA1535, Metabolic Activation: Rat, Liver, S9, Sodium phenobarbital and 5,6-benzoflavone (10%), Method: Preincubation) was “active; positive”; the mutagenic call (Test System: Ames Salmonella typhimurium, Strain/Indicator: TA1537, Metabolic Activation: None, Method: Preincubation) was “active; positive”; the mutagenic call (Test System: Ames Salmonella typhimurium, Strain/Indicator: TA1537, Metabolic Activation: Rat, Liver, S9, Sodium phenobarbital and 5,6-benzoflavone (10%), Method: Preincubation) was “inactive; negative”; the mutagenic call (Test System: CHINESE HAMSTER V-79, Strain/Indicator: V-79/6-THIOGUANINE, Metabolic Activation: NONE) is “active; positive”. Moreover, the mutagenic call (Test System: E. coli, Strain/Indicator: WP2uvrA/pKM101, Metabolic Activation: None, Method: Preincubation) is “active; positive”; the mutagenic call (Test System: E. coli, Strain/Indicator: WP2uvrA/pKM101, Metabolic Activation: Rat, Liver, S9, Sodium phenobarbital and 5,6-benzoflavone (10%), Method: Preincubation) is “active; positive”; the mutagenic call under setting [4] is “active; positive”.
As for `C=CCc1ccc(O)cc1`, the mutagenic call (Test System: AMES SALMONELLA TYPHIMURIUM, Strain/Indicator: TA98, Metabolic Activation: HAMSTER, LIVER, S-9, AROCLOR 1254, Method: STANDARD PLATE) is “inactive; negative”; the mutagenic call (Test System: AMES SALMONELLA TYPHIMURIUM, Strain/Indicator: TA98, Metabolic Activation: NONE, Method: STANDARD PLATE) is “inactive; negative”; the mutagenic call (Test System: AMES SALMONELLA TYPHIMURIUM, Strain/Indicator: TA98, Metabolic Activation: RAT, LIVER, S-9, AROCLOR 1254, Method: STANDARD PLATE) was “inactive; negative”; the mutagenic call (Test System: AMES SALMONELLA TYPHIMURIUM, Strain/Indicator: TA100, Metabolic Activation: HAMSTER, LIVER, S-9, AROCLOR 1254, Method: STANDARD PLATE) is “inactive; negative”; the mutagenic call under setting [1] was “inactive; negative”; the mutagenic call under setting [2] is “inactive; negative”. Also, the mutagenic call is, setting by setting: (Test System: AMES SALMONELLA TYPHIMURIUM, Strain/Indicator: TA1535, Metabolic Activation: HAMSTER, LIVER, S-9, AROCLOR 1254, Method: STANDARD PLATE) “inactive; negative”; under setting [3], “inactive; negative”; (Test System: AMES SALMONELLA TYPHIMURIUM, Strain/Indicator: TA1535, Metabolic Activation: RAT, LIVER, S-9, AROCLOR 1254, Method: STANDARD PLATE) “inactive; negative”; (Test System: AMES SALMONELLA TYPHIMURIUM, Strain/Indicator: TA1537, Metabolic Activation: HAMSTER, LIVER, S-9, AROCLOR 1254, Method: STANDARD PLATE) “inactive; negative”; (Test System: AMES SALMONELLA TYPHIMURIUM, Strain/Indicator: TA1537, Metabolic Activation: NONE, Method: STANDARD PLATE) “inactive; negative”; (Test System: AMES SALMONELLA TYPHIMURIUM, Strain/Indicator: TA1537, Metabolic Activation: RAT, LIVER, S-9, AROCLOR 1254, Method: STANDARD PLATE) “inactive; negative”. In addition, the mutagenic call reads like this: (Test System: AMES SALMONELLA TYPHIMURIUM, Strain/Indicator: TA1538, Metabolic Activation: HAMSTER, LIVER, S-9, AROCLOR 1254, Method: STANDARD PLATE) “inactive; negative”; (Test System: AMES SALMONELLA TYPHIMURIUM, Strain/Indicator: TA1538, Metabolic Activation: NONE, Method: STANDARD PLATE) “inactive; negative”; (Test System: AMES SALMONELLA TYPHIMURIUM, Strain/Indicator: TA1538, Metabolic Activation: RAT, LIVER, S-9, AROCLOR 1254, Method: STANDARD PLATE) “inactive; negative”; under setting [4], “inactive; negative. reevaluation of results: negative”; (Test System: MOUSE LYMPHOMA, Strain/Indicator: L5178Y (TK+/TK-), Metabolic Activation: RAT, LIVER, S-9, AROCLOR 1254, Method: SUSPENSION/PLATE) “inactive; negative. reevaluation of results: negative”.
As for `O=C(CCl)C(Cl)Cl`, the mutagenic call was “active; positive” (Test System: AMES SALMONELLA TYPHIMURIUM, Strain/Indicator: TA100, Metabolic Activation: NONE, Method: FLUCTUATION TEST) and “inactive; negative” (Test System: AMES SALMONELLA TYPHIMURIUM, Strain/Indicator: TA100, Metabolic Activation: RAT, LIVER, S-9, AROCLOR 1254, Method: FLUCTUATION TEST).

The record behind these values is PubChem BioAssay AID1259407 (Chemical Carcinogenesis Research Information System (CCRIS), 2018).
